Consider 61 compounds from the METLIN SMRT retention time set (Domingo-Almenara et al. 2019).

This series can be described thus: gradient 5% acetonitrile 3 min, to 50% in 2 min, to 85% in 15 min, held 3 min, 100 µL/min. As to conditions: column: Zorbax Extend-C18 2.1 x 50 mm; eluents: water / acetonitrile, 0.1% formic acid. The essentials:
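Data were gathered over 3 months by HPLC coupled to a quadrupole time-of-flight mass spectrometer, operated in positive and negative ionization mode. Mixtures of ~100 pure standards ran on a Zorbax Extend-C18 column (2.1 × 50 mm, 1.8 μm) at 100 μL/min, with water and acetonitrile each containing 0.1% formic acid and dead and dwell volumes of 40 μL and 900 μL. Retention time was read from adduct peaks picked by computer and checked manually.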
On to `CCN(CC)C(=O)c1cnc2snc(C)c2c1N1CCC(C(=O)Nc2cc(F)ccc2F)CC1`, for which the RP-LC retention time was found to be 940 s.
For `CCCNC(=O)C1CC(=O)N(CCc2c[nH]c3ccc(Cl)cc23)C1` (stereo unspecified) the value was 708 s.
Under `CN(C)S(=O)(=O)N1CC(c2nc(Cc3cccnc3)no2)C1` stands 543 s; under `O=C(NCC1OCCc2ccccc21)C(=O)Nc1ccccc1` (stereo unspecified), 956 s.
Under `CCn1ccc(C(=O)Nc2cccc(OCc3nnc(-c4ccccc4)o3)c2)n1` stands 891 s; under `CCS(=O)(=O)c1nc2ccc(NS(=O)(=O)c3cccc(F)c3)cc2s1`, 851 s.
The compound `O=C(CSc1nc2ccccc2nc1SCC(=O)N1CCCC1)N1CCCC1` showed an RP-LC retention time of 743 s.
Under `CCCn1c(CCNC(=O)c2cc(C)cc(C)c2)nc2cccnc21` stands 716 s; under `CCC(C)C1Nc2ccc(C(=O)NCCCOC)cc2NC1=O` (stereo unspecified), 653 s.
For `CC1(C(=O)NCc2ccc(F)cc2)CN(S(C)(=O)=O)CC(=O)N1c1cccc(F)c1` (stereo unspecified), the RP-LC retention time was 764 s.
`CCCCNC(=O)COc1c(C)cc(Br)cc1C` returned an RP-LC retention time of 1000 s.
For `O=C(O)/C=C\C(=O)Nc1ccc(-c2ccccc2)cc1` the value was 903 s; for `COc1ccc(NC(=O)Cn2c(=O)c(CCC(=O)NC3CCCCC3)nc3ccccc32)c(OC)c1`, 839 s; for `O=C(c1csc(N2CCN(c3ccc(Cl)cc3)CC2)n1)N1CCOCC1`, 942 s.
For `CCOc1ccc(-c2noc(CN3C(=O)COc4ccc(S(=O)(=O)CC)cc43)n2)cc1` the value was 944 s; for `Cc1cc2nc(C(F)(F)F)c(=O)n(C(C)C(=O)NCCN3CCOCC3)c2cc1C` (stereo unspecified), 683 s; for `Cc1c(Cl)cccc1NC(=O)C(=O)NCc1ccsc1`, 943 s.
For `COCC(=O)Nc1nc(-c2ccc3c(c2)N(C)C(=O)CO3)c(C)s1` the value was 764 s; for `COc1cc(-c2nc(-c3ccc4c(c3)oc(=O)n4C)no2)cc(OC)c1OC`, 985 s; for `Cc1ccc(F)cc1S(=O)(=O)N1CCC(N2CCN(Cc3ccccc3)C(=O)C2=O)CC1`, 883 s.
As for `CCCc1ccc(S(=O)(=O)Nc2ccc(N3CCCN(C)CC3)cc2C(=O)O)cc1`, the RP-LC retention time was determined as 676 s.
For `CCN(Cc1ccccc1)C(=O)CN1C(=O)CCc2cc(Br)ccc21` the value was 1000 s; for `Cc1ccc(-c2ccc(N3CCN(c4ccccn4)CC3)nn2)cc1S(=O)(=O)N1CCCCCC1`, 716 s.
Under `COc1cccc(-c2nn3c(CSc4ccccc4)nnc3s2)c1` stands 993 s; under `COc1cccc(-c2nc(COc3cc(C)c4c(C)nn(C)c4n3)c(C)o2)c1OC`, 1070 s.
For `CCC(CO)NCc1ccc(-c2ccc(Br)cc2)o1` (stereo unspecified) the value was 683 s; for `O=C(CSc1ccc(N2CCCC(C(=O)NC3CC3)C2)nn1)NCc1ccc(F)cc1` (stereo unspecified), 622 s.
`CC(C)c1noc(-c2ccn3c(CC(=O)NC(C)c4ccc(F)cc4)nnc3c2)n1` (stereo unspecified) came in with an RP-LC retention time of 792 s.
Turning to `O=C1C2CCCN2C(c2ccncc2)N1c1cccc(Cl)c1` (stereo unspecified), the RP-LC retention time is 587 s.
Under `COc1ccc(NC(=O)N2c3ccccc3CC2c2nc(C3CC3)no2)c(C)c1` (stereo unspecified) stands 978 s; under `CCOc1ccccc1OCc1nn2c(-c3ccoc3C)nnc2s1`, 970 s; under `Cc1cc(C)n2nc(CN(C(=O)c3cccs3)c3ccccc3)nc2n1`, 777 s.
Under `O=C(CN1CCCCC1c1nc(-c2cccs2)no1)NCc1ccc(Cl)cc1` (stereo unspecified) stands 1060 s; under `COc1cccc(CN2CC=C(C(=O)N3CCN(c4ccccc4OC)CC3)CC2)c1`, 651 s; under `CCN(CC)S(=O)(=O)c1cc(-c2nnc(-c3ccc(Br)cc3)o2)ccc1C`, 1230 s.
For `O=C(NCCc1c[nH]c2ccc(Cl)cc12)c1ccc(-n2nnc3cccnc32)cc1` the value was 922 s.
`Cc1csc(-c2ccc(N3CCN(C(=O)COc4ccc(F)cc4)CC3)nc2)n1`: the RP-LC retention time was 856 s.
Regarding `CCn1c(SC)nnc1-c1nn(C)c2c1CN(C(=O)c1ccccc1)CC2`, the RP-LC retention time was found to be 740 s.
`COc1ccc(-c2cc(C(=O)Nc3ccc(F)c(F)c3)sn2)cc1`: the RP-LC retention time was 1180 s.
The compound `Cc1ccc(NS(=O)(=O)c2ccc3c(c2)CCCC(=O)N3)cc1C` had an RP-LC retention time of 756 s.
For `COc1ccc(C2CC(=O)N(c3cccc(Br)c3)C(=O)C2)cc1OC` the value was 876 s; for `CSc1cccc(NC(=O)N2CCc3nc(CNC(=O)C4CCC4)n(C)c3C2)c1`, 632 s.
The compound `Cc1nc(Nc2ccccc2)sc1C(=O)Nc1cccc(F)c1` returned an RP-LC retention time of 998 s.
For `O=C(Cc1ccc(F)cc1)N1CCN(Cc2nc(C3CC3)cs2)CC1` the value was 610 s; for `O=C(CSC1CCc2ccccc2NC1=O)Nc1ccccc1` (stereo unspecified), 777 s.
The compound `Cc1cc(C)c(CNC(=O)C2CCCN(c3cnc4nccnc4c3)C2)c(C)c1` (stereo unspecified) came in with an RP-LC retention time of 819 s.
Under `Cc1ccc(C(C)NC(=O)C2CCN(c3ccc4nncn4n3)CC2)cc1` (stereo unspecified) stands 736 s; under `CCCCn1cnc2c(-c3ccccc3)cn(CC(=O)NCCC(C)C)c2c1=O`, 1050 s.
Under `NC(=O)c1cc2c(s1)N(CC1CC1)CCCC2` stands 827 s; under `CCNC(=O)C1CCCN(c2nc3ncn(CC(=O)Nc4ccc(CC)cc4)c(=O)c3s2)C1` (stereo unspecified), 661 s.
For `COc1ncccc1CNC(=O)CCc1c(C)nn(C)c1C` the value was 580 s; for `CCOCCCNC(=O)N1CC(c2nc(C)no2)C2(CCOCC2)C1` (stereo unspecified), 616 s.
In turn, `CC(C)NC(=O)N1CC[C@H](n2c(=O)n(C)c3cccnc32)C1` returned an RP-LC retention time of 632 s.
For `Cc1ccc(NC(=O)Cn2nc(N3CCCCCC3)c3ccccc3c2=O)cc1C` the value was 1200 s; for `CCCN1C(=O)c2cc(S(=O)(=O)NCc3ccc(C)o3)ccc2Oc2cccnc21`, 995 s.
In the case of `CCC(C)(C)OCC(O)CNCC(C)C` (stereo unspecified), the RP-LC retention time came to 579 s.
Under `CCCCNS(=O)(=O)c1cc(-c2[nH]ncc2C(=O)N2CCCC2)oc1C` stands 668 s; under `CC(C)COc1nc2c(c(=O)n(C)c(=O)n2C)n1C`, 865 s; under `O=C(Nc1ccc2c(c1)OCCO2)c1cnc(-c2ccc(F)cc2)nc1-c1ccncc1`, 831 s.
Under `Cc1ccc(NS(=O)(=O)c2cc3c(s2)CCN(C(=O)C2CC2)C3)c(F)c1` stands 828 s; under `CCN(CC)CCNC(=O)C1CCCN(c2ccc(Sc3ccc(Br)cc3)nn2)C1` (stereo unspecified), 664 s.
